Test results published in patent US20210180023A1, “CARDIAC REPAIR BY REPROGRAMMING OF ADULT CARDIAC FIBROBLASTS INTO CARDIOMYOCYTES” (The Board of Regents of the University of Texas System, priority 2017, published 2021).

T1: Flag-epitope tag ZNF281 fusion protein (human, UniProt Q9Y2X9 1-895)
T1 construct: Expressed in transfected HEK293 cells and tested in cell lysate; also called FLAG-tagged ZNF281; Flag-tagged ZNF281
T1 sequence: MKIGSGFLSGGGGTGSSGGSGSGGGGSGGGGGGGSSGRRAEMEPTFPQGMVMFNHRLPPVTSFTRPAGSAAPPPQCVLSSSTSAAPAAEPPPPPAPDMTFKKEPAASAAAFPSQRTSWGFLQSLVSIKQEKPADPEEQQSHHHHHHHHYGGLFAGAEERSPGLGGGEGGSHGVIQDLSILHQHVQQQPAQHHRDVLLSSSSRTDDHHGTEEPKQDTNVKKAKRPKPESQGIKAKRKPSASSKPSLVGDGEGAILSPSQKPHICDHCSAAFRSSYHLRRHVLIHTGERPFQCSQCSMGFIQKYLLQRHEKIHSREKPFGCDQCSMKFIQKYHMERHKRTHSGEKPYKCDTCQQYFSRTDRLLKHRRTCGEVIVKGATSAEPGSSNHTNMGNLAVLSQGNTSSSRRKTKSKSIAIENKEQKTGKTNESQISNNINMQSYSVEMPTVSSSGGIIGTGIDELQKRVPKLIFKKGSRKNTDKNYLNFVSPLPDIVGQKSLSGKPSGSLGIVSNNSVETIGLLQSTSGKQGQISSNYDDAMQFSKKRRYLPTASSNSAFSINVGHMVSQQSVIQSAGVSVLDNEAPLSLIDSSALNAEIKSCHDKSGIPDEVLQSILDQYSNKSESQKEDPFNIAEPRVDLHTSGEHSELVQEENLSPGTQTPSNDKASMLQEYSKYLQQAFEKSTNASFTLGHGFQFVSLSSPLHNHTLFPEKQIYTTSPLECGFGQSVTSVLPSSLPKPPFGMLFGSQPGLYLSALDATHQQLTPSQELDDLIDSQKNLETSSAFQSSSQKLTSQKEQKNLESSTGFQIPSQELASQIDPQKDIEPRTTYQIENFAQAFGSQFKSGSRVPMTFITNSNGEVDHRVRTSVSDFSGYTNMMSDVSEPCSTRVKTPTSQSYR

B1: myc-epitope tag fusion HAND2 (other, not shown: small tags and cut ends)
chain: MSLVGGFPHHPVVHHEGYPFAAAAAAAAAAAASRCSHEENPYFHGWLIGHPEMSPPDYSMALSYSPEYASGAAGLDHSHYGGVPPGAGPPGLGGPRPVKRRGTANRKERRRTQSINSAFAELRECIPNVPADTKLSKIKTLRLATSYIAYLMDLLAKDDQNGEAEAFKAEIKKTDVKEEKRKKELNEILKSTVSSNDKKTKGRTGWPQHVWALELKQ
notes: Expressed in transfected HEK293 cells; The tag's position is unknown; also called Myc-tagged HAND2; Heart- and neural crest derivatives-expressed protein 2
B2: myc-epitope tag fusion TBX5 (other, not shown: small tags and cut ends)
chain: MADADEGFGLAHTPLEPDAKDLPCDSKPESALGAPSKSPSSPQAAFTQQGMEGIKVFLHERELWLKFHEVGTEMIITKAGRRMFPSYKVKVTGLNPKTKYILLMDIVPADDHRYKFADNKWSVTGKAEPAMPGRLYVHPDSPATGAHWMRQLVSFQKLKLTNNHLDPFGHIILNSMHKYQPRLHIVKADENNGFGSKNTAFCTHVFPETAFIAVTSYQNHKITQLKIENNPFAKGFRGSDDMELHRMSRMQSKEYPVVPRSTVRQKVASNHSPFSSESRALSTSSNLGSQYQCENGVSGPSQDLLPPPNPYPLPQEHSQIYHCTKRKEEECSTTDHPYKKPYMETSPSEEDSFYRSSYPQQQGLGASYRTESAQRQACMYASSAPPSEPVPSLEDISCNTWPSMPSYSSCTVTTVQPMDRLPYQHFSAHFTSGPLVPRLAGMANHGSPQLGEGMFQHQTSVAHQPVVRQCGPQTGLQSPGTLQPPEFLYSHGVPRTLSPHQYHSVHGVGMVPEWSDNS
notes: Expressed in transfected HEK293 cells; The tag's position is unknown; also called Myc-tagged TBX5; T-box transcription factor TBX5

How the values were obtained:
[1] = test system: fibroblasts; conditions: added to reprogramming cocktail (GMT); cited from earlier work
[2] = test system: 5F-reprogrammed adult αMHC-GFP transgenic TTFs; test: Immunocytochemistry and flow cytometry of αMHC-GFP and cTnT in 5F-reprogrammed TTFs treated with anti-inflammatory drugs; assay type: cell-based, mouse; conditions: drug added to 5F, 7 days
Experimental: (§1) Retroviruses production, cellular reprogramming and treatment. For retroviruses production, Platinum E cells were seeded into culture dishes (1×10^5 cells/cm2) one day before transfection in DMEM supplemented with 10% FBS and 1% penicillin/streptomycin. Cells reached ˜80% confluency on the day of transfection. DNA plasmids were transfected into Platinum E cells using FuGENE 6 transfection reagent. Twenty-four hours after transfection, wild type or αMHC-GFP tail-tip fibroblasts were seeded into culture dishes or plates that were precoated with SureCoat (Cellutron) for one hour at a density of 6×10^4/cm^2. Forty-eight hours after transfection, polybrene was added to viral medium that was filtered through a 0.45-μm filter at a concentration of […]. The mixture replaced the growth medium in the cell culture plate with tail-tip fibroblasts. The viral infection was serially repeated twice. […]
Flow Cytometry. […] Cells were washed with Perm/Wash buffer, and then analyzed using FACS Caliber (BD Sciences) and FlowJo software. […]

[3] = test system: 5F-reprogrammed TTFs; test: q-PCR of inflammatory and cardiac markers in 5F-reprogrammed TTFs treated with anti-inflammatory drugs; assay type: cell-based, mouse; conditions: drug 10 μM added to 5F, 7 days
Experimental: as §1, with “twice. Twenty-four hours after the second infection, the viral medium was replaced with induction medium, composed of DMEM/199 (4:1), 10% conditioned medium obtained from neonatal rat cardiomyocyte culture, 10% FBS, 5% horse serum, 1% penicillin/streptomycin, 1% nonessential amino acids, 1% essential amino acids, 1% B-27, 1% insulin-selenium-transferrin, 1% vitamin mixture, and 1% sodium pyruvate (Invitrogen).” for “twice.”
Quantitative mRNA measurement. […]

[4] = test system: adult tail-tip fibroblasts (TTFs) from αMHC-GFP mice; test: Human retroviral ORF cDNA library screen for AGHMT-mediated cardiac reprogramming (high-throughput imaging of αMHC-GFP and cTnT); assay type: cell-based, mouse; conditions: for cTnT Z-score / αMHC Z-score: individual cDNA expressed together with 5F (AGHMT), 9 days, Z-score ≥2 activator, ≤−2 inhibitor; for αMHC Z-score: αMHC-GFP; for 5F-mediated cardiac reprogramming (αMHC-GFP, cTnT immunocytochemistry): virus added to 5F (AGHMT), 9 days post-infection
Source text: Isolation of mouse tail-tip fibroblast. For isolation of adult mouse tail-tip fibroblasts, tails were cut from 8-12 weeks old adult wild-type or αMHC-GFP mouse and were minced into […] with razor blades after peeling off the superficial dermis. The minced tails were placed in fibroblast growth medium (DMEM supplemented with 10% FBS and 1% (vol/vol) penicillin/streptomycin). Tail-tip fibroblasts migrated out from the explants within 1 week and were passaged one time before use.
Construction of human retroviral ORFs library. Gateway-compatible Human ORFs pEntry vectors were purchased from Thermo Fisher Scientific. Gateway-compatible retroviral destination vector, pMXs-gw, was a gift from Shinya Yamanaka (Addgene plasmid #18656) (Takahashi, 2006). The inventors transferred each ORF individually into pMXs-gw by performing site-specific LR recombination using Gateway LR Clonase II Enzyme Mix kit (Thermo Fisher Scientific).
Retroviruses production, cellular reprogramming and treatment. For retroviruses production, Platinum E cells were seeded into culture dishes (1×10^5 cells/cm2) one day before transfection in DMEM supplemented with 10% FBS and 1% penicillin/streptomycin. Cells reached ˜80% confluency on the day of transfection. DNA plasmids were transfected into Platinum E cells using FuGENE 6 transfection reagent. Twenty-four hours after transfection, wild type or αMHC-GFP tail-tip fibroblasts were seeded into culture dishes or plates that were precoated with SureCoat (Cellutron) for one hour at a density of 6×10^4/cm^2. Forty-eight hours after transfection, polybrene was added to viral medium that was filtered through a 0.45-μm filter at a concentration of […]. The mixture replaced the growth medium in the cell culture plate with tail-tip fibroblasts. The viral infection was serially repeated twice. Twenty-four hours after the second infection, the viral medium was replaced with induction medium, composed of DMEM/199 (4:1), 10% conditioned medium obtained from neonatal rat cardiomyocyte culture, 10% FBS, 5% horse serum, 1% penicillin/streptomycin, 1% nonessential amino acids, 1% essential amino acids, 1% B-27, 1% insulin-selenium-transferrin, 1% vitamin mixture, and 1% sodium pyruvate (Invitrogen). Small molecule treatments were used throughout the reprogramming process […] (Sigma).
Immunocytochemistry. For immunocytochemistry, cells were fixed in 4% paraformaldehyde for 15 min and permeabilized with 0.1% Triton-X in room temperature. Cells were washed with PBS for three times followed by blocking with 10% goat serum for 1 hr. Cells then were incubated with mouse monoclonal anti-cardiac Troponin T (cTnT) antibody (Thermo Scientific) at 1:500 dilutions and rabbit anti-GFP antibody (Thermo Scientific) at 1:500 dilutions in 5% Goat serum for 1 hr. After washing with PBS three times, Cells then were incubated with donkey anti-mouse alexa fluor 647 (Invitrogen) at 1:500 and goat anti-rabbit Alexa fluor 488 at 1:500 (Invitrogen).
Identification of activators and inhibitors of cardiac reprogramming in adult fibroblasts. The inventors' previously optimized cardiac reprogramming protocol with five factors (AGHMT, also called 5F) was able to reprogram ˜3% efficiency of adult TTFs to iCMs as measured by activation of a cardiac-specific αMHC-GFP transgene and cardiac troponin T (cTnT) immunostaining (Zhou et al., 2015). To identify additional regulators of cardiac reprogramming, the inventors created a retroviral expression library consisting of 1,052 open reading frame (ORF) cDNAs representing 786 human transcription factor, cytokine, epigenetic regulator and nuclear receptor genes (Table 51). The inventors screened this expression library for activators and inhibitors of cardiac reprogramming by expressing individual cDNAs together with 5F in isolated TTFs from αMHC-GFP mice, as schematized in FIG. 1A. […]

[5] = molecular target: GATA4 (expression plasmid, luciferase reporter assay) (human) (UniProt P43694); test: cell-based or functional assay
[6] = molecular target: T1, Flag-epitope tag ZNF281 fusion protein; test: co-immunoprecipitation from transfected HEK293 cells (anti-FLAG IP, anti-Myc blot)
Experimental: FIGS. 6A-F. ZNF281 interacts with GATA4 to synergistically activate cardiac genes. (FIG. 6A) Co-immunoprecipitation assays were performed using HEK293 cells transfected with equal amounts of plasmid DNA encoding Myc-tagged GATA4, HAND2, MEF2c, or TBX5 and/or Flag-tagged ZNF281. IP, immunoprecipitation; IB, immunoblot. (FIG. 6B) Luciferase reporter assays were performed using HEK293 cells transfected with equal amounts of ZNF281 and/or GATA4 expression plasmids, as indicated, along with αMHC-luciferase reporter plasmid. (FIG. 6C) Heat maps showing ChIP-seq data for H3K27ac in adult mouse heart, and ZNF281 and GATA4 binding in reprogrammed TTFs at ±5 kB around the peak center. ChIP-seq experiments were performed using TTFs infected with 6F for 2 days. (FIG. 6D) ZNF281 binding motif enriched within ZNF281 binding peaks. (FIG. 6E) GATA4 binding motif enriched within GATA4 binding peaks. (FIG. 6F) Venn diagram showing the number of overlapping peaks between Heart H3K27ac, ZNF281 and GATA4. *P<0.05
Immunoprecipitation and Western Blot Analysis. Flag-epitope tag ZNF281 fusion protein were co-expressed with myc-epitope tag fusion GATA4, HAND2, MEF2C or TBX5 in HEK293 cells for 48 hours. […] The final elution and the input obtained before the immunoprecipitation was analyzed by SDS-PAGE western blot using a mouse monoclonal anti-Myc antibody (Novex) or mouse monoclonal anti-FLAG antibody (Sigma).

GATA4 (expression plasmid, luciferase reporter assay) (human), sequence (P43694 whole entry, the tested form may be a part): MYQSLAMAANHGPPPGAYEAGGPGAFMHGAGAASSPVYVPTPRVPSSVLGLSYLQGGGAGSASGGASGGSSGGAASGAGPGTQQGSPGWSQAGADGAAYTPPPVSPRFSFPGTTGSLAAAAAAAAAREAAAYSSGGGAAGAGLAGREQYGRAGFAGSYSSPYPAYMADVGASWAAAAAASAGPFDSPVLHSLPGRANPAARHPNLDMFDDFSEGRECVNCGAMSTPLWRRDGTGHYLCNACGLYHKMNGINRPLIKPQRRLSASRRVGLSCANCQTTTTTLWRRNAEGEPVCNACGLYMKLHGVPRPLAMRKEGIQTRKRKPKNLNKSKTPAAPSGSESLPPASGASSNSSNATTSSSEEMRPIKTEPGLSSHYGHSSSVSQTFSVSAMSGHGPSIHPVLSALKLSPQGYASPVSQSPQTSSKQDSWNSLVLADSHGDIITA

Row | Molecule | cTnT Z-score [4] | αMHC Z-score [4] | 5F-mediated cardiac reprogramming (αMHC-GFP, cTnT immunocytochemistry) [4] | further results
1 | C[C@H](NC(=O)Cc1cc(F)cc(F)c1)C(=O)N[C@H](C(=O)OC(C)(C)C)c1ccccc1 [DAPT] |  |  |  | cardiac reprogramming [1]: enhance cardiac reprogramming
2 | NC(=O)c1ccc(-c2nc(-c3ccc4c(c3)OCO4)c(-c3ccccn3)[nH]2)cc1 [SB431542] |  |  |  | cardiac reprogramming [1]: enhance cardiac reprogramming
3 | COc1ccc2cc(CCC(C)=O)ccc2c1 [nabumetone] |  |  |  | cardiac reprogramming efficiency [2]: greatly enhanced; expression of inflammatory markers (IL6, Ccl2, and Ptgs1) [3]: decreased
4 | Achaete-scute homolog 1 [ASCL1] | 3.9 | 0.0 | greatly enhanced reprogramming | 
5 | BMP2 | 0.5 | −3.2 |  | 
6 | PHD finger protein 7 [PHF7] | 9.7 | 7.4 | enhanced reprogramming | 
7 | ZNF281 (expression plasmid, luciferase reporter assay) (from UniProt Q9Y2X9 1-895) |  |  |  | αMHC-Luciferase reporter activation [5]: 15 fold
8 | forkhead box protein A3 [FOXA3] | −3.1 | −4.3 | practically abolished | 
9 | B1 |  |  |  | binding result [6]: no binding
10 | B2 |  |  |  | binding result [6]: no binding
